Among the data in ChEMBL document CHEMBL1764955, “The synthesis and evaluation of indolylureas as PKCα inhibitors” (Bioorg Med Chem, 2011) are IC50 values, retold here.

For orientation: IC50 means the point on the concentration scale where inhibition reaches its midpoint.

In experiment [1] the target is Protein kinase C alpha type (Homo sapiens, UniProt P17252). The experiment is described as follows: Inhibition of human PKCalpha activity using neurogranin as a substrate in presence of 50 uM ATP by mass spectrometry.
Experiment [2] has as its target cAMP-dependent protein kinase catalytic subunit beta (Homo sapiens, UniProt P22694). The experiment is described as follows: Inhibition of PKA activity using kemptide as a substrate in presence of 50 uM ATP by mass spectrometry.

SMILES strings stand for the structures.

For `CN(C)CCCn1cc(NC(=O)Nc2nccc(-c3ccccc3)n2)c2ccccc21`, the IC50 in experiment [1] was found to be 0.095 µM; in experiment [2], 23.6 µM.
Consider `CCN(CC)CCCn1cc(NC(=O)Nc2cccc(-c3ccccc3)n2)c2ccccc21`, for which, in experiment [1], the IC50 came to 2.68 µM.
`CCN(CC)CCCn1cc(NC(=O)Nc2ccnc(-c3ccccc3)n2)c2ccccc21`: in experiment [1], the IC50 was 4.81 µM.
On to `CCN(CC)CCCn1cc(NC(=O)Nc2cncc(-c3ccccc3)n2)c2ccccc21`, for which the IC50 in experiment [1] amounted to 8.07 µM.
